This note sets out measurements from article PMC12040169 (PLOS Biology, 2025).

The data set in a line: in vitro. To be noted: human, hela cells, % viability.
In general, viability refers to a read-out of living cells in per cent, often relative to untreated cells. In the case of `O=C(CSc1nc[nH]n1)Nc1nsc(-c2ccc(Cl)cc2)n1` [CBK267273], the viability at 28.5 h, 10 µM was determined as 110%.

`O=C(O)C1(NS(=O)(=O)c2ccc(F)c(Cl)c2)CCCCC1` [CBK267276]: the viability at 28.5 h, 10 µM worked out at 98.2%.

For `NC(=O)CSc1nnc(COc2ccc(Br)cc2)n1-c1ccccc1` [CBK267277], the viability at 28.5 h, 10 µM was 101%.

In the case of `COc1ccc(S(=O)(=O)N(C)CC(=O)Nc2ccc(C(N)=O)cc2)cc1C` [CBK267278], the viability at 28.5 h, 10 µM is 88%.

On to `COc1ccc(NC(=O)CC2NC(=O)NC2=O)cc1` (stereo not drawn) [CBK267279], for which the viability at 28.5 h, 10 µM is 86.5%.

As for `O=C(CSc1nc2sc3c(c2c(=O)n1CCc1ccccc1)CCCC3)Nc1ccccc1` [CBK267281], the viability at 28.5 h, 10 µM was determined as 112%.

Turning to `Cc1nnc2sc(-c3cccc(NC(=S)NC(=O)c4cc5ccccc5o4)c3)nn12` [CBK267282], the viability at 28.5 h, 10 µM stood at 87.4%.

With `Nc1ncnc(NCCc2c[nH]c3ccccc23)c1[N+](=O)[O-]` [CBK267283], the viability at 28.5 h, 10 µM came out at 29.6%.

Take `CN(C)CCCNc1nc(-c2cccc(Cl)c2)nc2ccccc12` [CBK267284C]: the viability at 28.5 h, 10 µM stood at 81.5%.

Take `CCCCC12CN3CC(C)(CN(C1)C31C(=O)N(C)c3ccc(C)cc31)C2=O` (stereo not drawn) [CBK267286]: the viability at 28.5 h, 10 µM came out at 96.1%.

For the compound `CCN(CC)CCNc1ncnc(N)c1[N+](=O)[O-]` [CBK267287], the viability at 28.5 h, 10 µM is 82.8%.

In the case of `Cc1ccc(-c2noc(CN3CCN(Cc4ccccc4)CC3)n2)cc1` [CBK267288], the viability at 28.5 h, 10 µM amounted to 91.3%.

For the compound `COc1ccc(-c2nc(NC(=O)CSc3nnc(C)s3)ns2)cc1` [CBK267290], the viability at 28.5 h, 10 µM came out at 96.9%.

For the compound `O=C(NCc1ccccn1)c1ccc(CNS(=O)(=O)c2cccc(C(F)(F)F)c2)cc1` [CBK267291], the viability at 28.5 h, 10 µM is 87.7%.

For the compound `C=CCn1c(S)nnc1COc1cccc2ccccc12` [CBK267292], the viability at 28.5 h, 10 µM came to 89.4%.

Consider `Cc1ccc(Cl)c(NC(=O)NCCN2CCN(c3ccccc3[N+](=O)[O-])CC2)c1` [CBK267293], for which the viability at 28.5 h, 10 µM was determined as 94.5%.

Regarding `Nc1ncnc(NCCC(c2ccccc2)c2ccccc2)c1[N+](=O)[O-]` [CBK267294], the viability at 28.5 h, 10 µM amounted to 90.5%.

As to `Cc1ccc(NC(=O)CSCc2nc3ccccc3[nH]2)cc1` [CBK267299], the viability at 28.5 h, 10 µM amounted to 108%.

For `Cc1cc(C)c2c(n1)OC(N1CCOCC1)(C(F)(F)F)CC2=O` (stereo not drawn) [CBK267301], the viability at 28.5 h, 10 µM was 79.2%.

In the case of `O=C(NCc1ccccc1)c1cnsn1` [CBK267302], the viability at 28.5 h, 10 µM was determined as 90.8%.

Regarding `COc1cc(OC)c(NC(=O)CSc2ccccn2)cc1Cl` [CBK267303], the viability at 28.5 h, 10 µM was found to be 92.5%.

For the compound `Nc1nonc1C(=O)NCCNCc1cccs1` [CBK267305], the viability at 28.5 h, 10 µM worked out at 95.2%.

On to `CC(C)Nc1ccc(S(=O)(=O)N(Cc2ccccc2)Cc2ccccc2)cn1` [CBK267307], for which the viability at 28.5 h, 10 µM worked out at 84.6%.

For the compound `c1ccc(COC(c2ccccc2)c2nc3ccccc3n2Cc2ccccc2)cc1` (stereo not drawn) [CBK267311], the viability at 28.5 h, 10 µM was found to be 98.2%.

As for `Nc1ncnc(NCCCn2ccnc2)c1[N+](=O)[O-]` [CBK267312], the viability at 28.5 h, 10 µM was 93.5%.

For the compound `O=C(CSc1ncn(-c2ccccc2)n1)Nc1ccc(F)c(Cl)c1` [CBK267313], the viability at 28.5 h, 10 µM stood at 94.4%.

In the case of `CCC(Oc1nc2ccccc2nc1-c1ccccc1NC(C)=O)C(=O)c1ccccc1` (stereo not drawn) [CBK267315], the viability at 28.5 h, 10 µM was determined as 94.4%.

As for `N#C/C(=C/c1cn(CCC(N)=O)c2ccccc12)c1ccc2c(c1)OCO2` [CBK267319], the viability at 28.5 h, 10 µM was 90.2%.

Consider `CN(C)S(=O)(=O)c1ccc(NC(=O)c2ccc(-c3ccccc3)cc2)cc1` [CBK267322], for which the viability at 28.5 h, 10 µM is 104%.

In the case of `Nc1nc(SCC(=O)N2CCC(c3noc4ccc(F)cc34)CC2)n[nH]1` [CBK267326], the viability at 28.5 h, 10 µM was found to be 91.4%.

With `Cc1ccc(C(=O)NCCN2CCOCC2)cc1S(=O)(=O)N1CCCCC1` [CBK267329], the viability at 28.5 h, 10 µM came out at 86.2%.

Turning to `CCOC(=O)c1ccc(NC(=O)C(C)Sc2nc3ccccc3[nH]2)cc1` (stereo not drawn) [CBK267330], the viability at 28.5 h, 10 µM turned out to be 91.8%.

As to `O=C(CC1NC(=O)NC1=O)Nc1ccccc1` (stereo not drawn) [CBK267331], the viability at 28.5 h, 10 µM stood at 90.4%.

As for `Cc1cccc(NC(=O)c2cc(NC(=O)C3CCCCC3C(=O)O)ccc2N2CCCCC2)c1` (stereo not drawn) [CBK267332], the viability at 28.5 h, 10 µM came to 97.3%.

Consider `COc1ccc(S(=O)(=O)N(C)CC(=O)Nc2ccc(S(N)(=O)=O)cc2)cc1C` [CBK267333], for which the viability at 28.5 h, 10 µM was determined as 93.7%.

Turning to `Cc1ccc(C(=O)O)cc1S(=O)(=O)N(CCO)CCO` [CBK267335], the viability at 28.5 h, 10 µM came to 102%.

As for `CCOc1cc(/C=C/c2nc(O)c([N+](=O)[O-])c(=O)[nH]2)ccc1OCC(N)=O` [CBK267337], the viability at 28.5 h, 10 µM came to 96%.

For the compound `CC(=O)Nc1ccc(S(=O)(=O)N2CCN(c3cc4c(cc3[N+](=O)[O-])n(C)c(=O)n4C)CC2)cc1` [CBK267338], the viability at 28.5 h, 10 µM worked out at 91.9%.

Take `O=C(Cn1c(C(F)(F)F)nc2ccccc21)NCCN1CCOCC1` [CBK267339]: the viability at 28.5 h, 10 µM was determined as 100%.

With `O=[N+]([O-])c1cc(-c2nnc(-c3ccccc3)o2)ccc1-n1c(-c2ccccc2)nnc1-c1ccccc1` [CBK267341], the viability at 28.5 h, 10 µM came out at 99.2%.

As for `O=C(CN1C(=O)CSc2ccccc21)Nc1ccccc1C(=O)N1CCOCC1` [CBK267343], the viability at 28.5 h, 10 µM is 104%.

For the compound `Nc1ncnc(Nc2ccc(Nc3ccccc3)cc2)c1[N+](=O)[O-]` [CBK267347], the viability at 28.5 h, 10 µM came out at 88.9%.

Turning to `N=C(N)Nc1nc(-c2ccccc2)c2cc(F)ccc2n1` [CBK267350], the viability at 28.5 h, 10 µM came out at 82.7%.

For `O=C1CC(C(=O)c2ccccc2)NC(N2CCOCC2)=N1` (stereo not drawn) [CBK267352], the viability at 28.5 h, 10 µM was determined as 105%.

Regarding `O=C(CC1NC(=O)NC1=O)Nc1ccc(C(=O)O)cc1` (stereo not drawn) [CBK267355], the viability at 28.5 h, 10 µM is 99.1%.

In the case of `CC(C)(C)c1ccc(NC(=O)C(=O)NCCCn2ccnc2)cc1` [CBK267358], the viability at 28.5 h, 10 µM turned out to be 108%.

With `Cc1nc(N)sc1-c1nnc(SCC(=O)Nc2ccccc2C(F)(F)F)n1C` [CBK267359], the viability at 28.5 h, 10 µM is 99.5%.

Turning to `O=C(CSc1nc[nH]n1)c1ccc2c(c1)OCCO2` [CBK267360], the viability at 28.5 h, 10 µM turned out to be 101%.

For `O=C(COc1ccc2ccccc2c1Br)NCc1ccccn1` [CBK267361], the viability at 28.5 h, 10 µM stood at 84.1%.

With `CCC(C)Oc1ccccc1OCCN1C(=O)NC(C)(C)C1=O` (stereo not drawn) [CBK267362], the viability at 28.5 h, 10 µM was 98.5%.

Regarding `Cc1ccc(/C(N)=N/OC(=O)CN(C)S(=O)(=O)c2ccc3ccccc3c2)cc1` [CBK267363], the viability at 28.5 h, 10 µM worked out at 104%.

As for `C=CCn1c(SCc2nnc(-c3ccccc3)o2)nnc1C(O)c1ccccc1` (stereo not drawn) [CBK267368], the viability at 28.5 h, 10 µM came out at 110%.

Turning to `Cn1c(SCC(=O)n2c3c(c4ccccc42)CCCC3)nnc1-c1ccco1` [CBK267370], the viability at 28.5 h, 10 µM was 99.2%.

On to `CC(C)c1ccc(NC(=O)CSc2nnc(Cc3cccc4ccccc34)o2)cc1` [CBK267371], for which the viability at 28.5 h, 10 µM stood at 88.7%.

Take `CC(=O)Nc1ccccc1NC(=O)CN(C)S(=O)(=O)c1ccc(Cl)cc1` [CBK267373]: the viability at 28.5 h, 10 µM is 93.2%.

As for `CCN1CCN(CCOc2c(OC)cccc2OC)CC1` [CBK267375G], the viability at 28.5 h, 10 µM turned out to be 96.9%.

Consider `Cc1ccc(S(=O)(=O)Nc2cccc3ccccc23)c([N+](=O)[O-])c1` [CBK267381], for which the viability at 28.5 h, 10 µM was 71.9%.

In the case of `O=C(CSc1nnc(Cc2cccc3ccccc23)n1-c1ccccc1)NC1CC1` [CBK267382], the viability at 28.5 h, 10 µM turned out to be 86.3%.

`CN(C)S(=O)(=O)c1ccc(C(=O)Nc2ccc(N3CCOCC3)c(Cl)c2)cc1` [CBK267383]: the viability at 28.5 h, 10 µM was 87.7%.

In the case of `CN(CC(=O)NNC(=O)c1cccnc1)S(=O)(=O)c1cc(Cl)ccc1Cl` [CBK267388], the viability at 28.5 h, 10 µM came to 92.2%.

With `O=C(NCCOc1cccc(Cl)c1Cl)c1ccccc1-c1ccccc1` [CBK267390], the viability at 28.5 h, 10 µM stood at 40.6%.

Regarding `Cc1ccc(C)c(OCCNS(=O)(=O)c2cc([N+](=O)[O-])ccc2C)c1` [CBK267393], the viability at 28.5 h, 10 µM came to 87.1%.

As to `N#Cc1cccc(CSc2nnc(-c3ccccc3O)n2Cc2ccccc2)c1` [CBK267395], the viability at 28.5 h, 10 µM is 85.8%.

Turning to `O=C(Nc1ccccc1)c1ccccc1OCc1ccc(S(=O)(=O)N2CCOCC2)cc1` [CBK267396], the viability at 28.5 h, 10 µM amounted to 92.8%.

As for `O=C(O)Cc1ccc(NC(=O)c2cccnc2C(=O)O)cc1` [CBK267397], the viability at 28.5 h, 10 µM is 97.2%.

For `CCCC(=O)Nc1ccccc1NC(=O)c1cccc([N+](=O)[O-])c1C` [CBK267398], the viability at 28.5 h, 10 µM was determined as 92.1%.

On to `O=C(NNC(=O)c1ccc2c(c1)C(=O)N(Cc1ccco1)C2=O)c1cccnc1` [CBK267403], for which the viability at 28.5 h, 10 µM came out at 91%.

For `CC(C)(c1ccccc1)c1ccc(OCc2ccc(S(=O)(=O)N3CCOCC3)cc2)cc1` [CBK267407], the viability at 28.5 h, 10 µM was determined as 96.8%.

On to `Nc1nc(CSc2nnc(Cc3ccc([N+](=O)[O-])cc3)n2-c2ccccc2)cs1` [CBK267408], for which the viability at 28.5 h, 10 µM amounted to 93.5%.

As to `CN(CC(=O)NNC(=O)c1cccs1)S(=O)(=O)c1ccc2ccccc2c1` [CBK267409], the viability at 28.5 h, 10 µM was 90.8%.

In the case of `Cc1ccc(S(=O)(=O)Nc2ccc(S(=O)(=O)Nc3nccs3)cc2)c([N+](=O)[O-])c1` [CBK267410], the viability at 28.5 h, 10 µM turned out to be 85.9%.

For the compound `O=C(OCc1ccc(S(=O)(=O)N2CCOCC2)cc1)c1cc(-c2ccccc2)nc2ccccc12` [CBK267411], the viability at 28.5 h, 10 µM came to 89.6%.

As for `COc1ccc(CCNS(=O)(=O)c2cc([N+](=O)[O-])ccc2C)cc1OC` [CBK267412], the viability at 28.5 h, 10 µM worked out at 94.2%.

As to `C/C=C/c1ccc(OCCCSc2nc(C)cc(O)n2)c(OC)c1` [CBK267413], the viability at 28.5 h, 10 µM is 93.5%.

On to `COc1ccc(CC(=O)Nc2ccc(-c3nnc(-c4ccccc4)o3)cc2)cc1OC` [CBK267414], for which the viability at 28.5 h, 10 µM was found to be 94.9%.

Consider `O=C(Nc1ccc(O)cc1C(=O)O)c1ccc2c(c1)C(=O)N(Cc1ccco1)C2=O` [CBK267418], for which the viability at 28.5 h, 10 µM came to 103%.

As to `Cc1ccc(NC(=O)CSc2nnc(C(O)c3ccccc3)n2-c2ccccc2)c(Br)c1` (stereo not drawn) [CBK267421], the viability at 28.5 h, 10 µM was determined as 89.8%.

As to `CN(CC(=O)Nc1ccc([N+](=O)[O-])cc1)S(=O)(=O)c1ccc2ccccc2c1` [CBK267422], the viability at 28.5 h, 10 µM was 92.7%.
